From patent US9745321B2, “Fused pyrimidine compound, intermediate, preparation method therefor, and composition and application thereof” (SHANGHAI YINGLI PHARMACEUTICAL CO., LTD, priority 2013, dated 2017) come the findings set out here.

In one experiment the target is PI3Kγ (Homo sapiens (Human), UniProt P48736). As to the kind of experiment: PI3Kγ enzyme activity inhibition IC50 evaluation assay. It is filed as biochemical. The settings on record: ratio PI3Kγ vs PI3Kδ. The protocol: (§1) PI3Kα, PI3Kδ, PI3Kβ and PI3Kγ Enzyme Activity Inhibition IC50 Evaluation Assay
(§2) • 1. Buffer preparation: 50 mM HEPES, pH 7.5, 3 mM MgCl2, 1 mM EGTA, 100 mM NaCl, 0.03% CHAPS. • 2. Compound was formulated in 100% DMSO in a concentration gradient, and added to a 384-well plate to a final DMSO concentration of 1%. • 3. PI3Kα, PI3Kδ, PI3Kβ and PI3Kγ enzymes were diluted to an optimum concentration with the following buffer: 50 mM HEPES, pH 7.5, 3 mM MgCl2, 1 mM EGTA, 100 mM NaCl, 0.03% CHAPS, 2 mM DTT, and transferred to a 384-well plate and incubated with the compound for a certain time. • 4. Substrate was diluted to an optimum concentration with the following buffer: 50 mM HEPES, pH 7.5, 3 mM MgCl2, 1 mM EGTA, 100 mM NaCl, 0.03% CHAPS, 2 mM DTT, 50 μM PIP2, 25 μM ATP; then added to a 384-well plate to initiate the reaction, and for PI3Kα, PI3Kβ and PI3Kγ at room temperature reacted for 1 hr, for PI3Kδ at room temperature reacted for 2 hrs. For PI3Kβ and PI3Kγ, it was still necessary to further add 10 μL ADP-Glo Detection Reagent, and then equilibrated at room temperature for 30 minutes. • 5. Read Luminescense with FlexStation, and calculate the inhibition rate as the average of two tests.

Another experiment addresses PI3Kα (Homo sapiens (Human), UniProt P42336). As to the kind of experiment: PI3Kα enzyme activity inhibition IC50 evaluation assay. Conditions: ratio PI3Kα vs PI3Kδ. It is filed as biochemical. The method, boiled down: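 Enzymes were preincubated with compound (1% DMSO final) in HEPES pH 7.5 buffer with MgCl2, EGTA, NaCl, CHAPS and 2 mM DTT. Reaction started with 50 μM PIP2 and 25 μM ATP, 1 h at room temperature. Luminescence was read, with ADP-Glo detection reagent added for β and γ; inhibition is the mean of two tests.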

A further experiment has as its target PI3Kδ (Homo sapiens (Human), UniProt O00329). As to the kind of experiment: PI3Kδ enzyme activity inhibition IC50 evaluation assay. It is filed as biochemical. Conditions: luminescence, 25 μM ATP, 50 μM PIP2, 2 hrs room temperature. The procedure, abridged:
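Enzyme was preincubated with compound dilutions at 1% DMSO final in 50 mM HEPES pH 7.5, 3 mM MgCl2, 1 mM EGTA, 100 mM NaCl, 0.03% CHAPS, 2 mM DTT. Activity was read by luminescence, and inhibition rate is the mean of two tests.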

The target of the next experiment is PI3Kβ (Homo sapiens (Human), UniProt P42338). As to the kind of experiment: PI3Kβ enzyme activity inhibition IC50 evaluation assay. In kind it is biochemical. The settings on record: ratio PI3Kβ vs PI3Kδ. As for the experimental part: as §1, §2
For the next experiment, the system named is Raji cells. As to the kind of experiment: Inhibition of TNF-α generation of human Raji cell induced by human IgM. It is filed as cell-based. Conditions: 10 μg/ml IgM stimulation, 24 hrs, ELISA. The protocol:
Screening Test for a Drug on Inhibiting TNF-α Generation of Human Raji Cell Induced by Human IgM
• 1. Raji cell lines (source of human Burkitt's lymphoma) were employed. • 2. 1×10^5/well Raji cells were plated onto a 96-well cell culture plate. • 3. Compounds to be screened were diluted to the corresponding test concentrations and added into the cell culture system 30 minutes before IgM stimulation. • 4. 10 μg/ml IgM monoclonal antibody was added into the cell culture system to stimulate the cells generating TNF-α. • 5. 24 hrs later, the amount of TNF-α generated by the cell system was measured by ELISA method. • 6.

Bounds are passed on as bounds.

Sequence of PI3Kγ (P48736 whole entry): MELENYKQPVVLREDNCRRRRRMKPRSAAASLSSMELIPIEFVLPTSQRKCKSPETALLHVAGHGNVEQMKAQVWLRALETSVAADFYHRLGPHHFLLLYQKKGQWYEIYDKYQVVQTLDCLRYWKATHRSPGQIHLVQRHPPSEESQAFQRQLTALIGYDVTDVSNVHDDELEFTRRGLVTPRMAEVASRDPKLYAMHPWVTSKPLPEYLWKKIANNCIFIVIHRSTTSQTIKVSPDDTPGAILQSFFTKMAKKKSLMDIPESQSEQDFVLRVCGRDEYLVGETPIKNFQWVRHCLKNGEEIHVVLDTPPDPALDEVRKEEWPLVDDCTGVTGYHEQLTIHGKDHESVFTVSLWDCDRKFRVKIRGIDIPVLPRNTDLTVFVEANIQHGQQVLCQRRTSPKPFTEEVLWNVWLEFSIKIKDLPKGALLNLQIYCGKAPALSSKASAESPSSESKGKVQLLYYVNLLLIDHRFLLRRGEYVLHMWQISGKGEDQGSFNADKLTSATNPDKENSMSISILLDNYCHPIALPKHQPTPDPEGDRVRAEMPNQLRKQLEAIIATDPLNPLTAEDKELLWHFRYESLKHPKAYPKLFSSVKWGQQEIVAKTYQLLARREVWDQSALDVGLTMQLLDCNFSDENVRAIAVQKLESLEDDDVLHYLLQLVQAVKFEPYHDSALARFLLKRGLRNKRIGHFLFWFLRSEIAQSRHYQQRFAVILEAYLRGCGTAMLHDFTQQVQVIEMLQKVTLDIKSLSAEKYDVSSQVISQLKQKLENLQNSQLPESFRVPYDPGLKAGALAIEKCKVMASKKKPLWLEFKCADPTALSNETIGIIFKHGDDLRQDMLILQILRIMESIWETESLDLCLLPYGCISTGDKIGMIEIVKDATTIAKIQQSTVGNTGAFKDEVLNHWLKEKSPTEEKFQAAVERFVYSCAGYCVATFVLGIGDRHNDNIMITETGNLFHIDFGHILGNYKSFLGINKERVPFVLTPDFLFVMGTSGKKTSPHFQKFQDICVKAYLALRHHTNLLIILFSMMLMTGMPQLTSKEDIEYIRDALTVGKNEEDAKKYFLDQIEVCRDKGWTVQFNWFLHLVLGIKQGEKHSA
Sequence of PI3Kα (P42336 whole entry): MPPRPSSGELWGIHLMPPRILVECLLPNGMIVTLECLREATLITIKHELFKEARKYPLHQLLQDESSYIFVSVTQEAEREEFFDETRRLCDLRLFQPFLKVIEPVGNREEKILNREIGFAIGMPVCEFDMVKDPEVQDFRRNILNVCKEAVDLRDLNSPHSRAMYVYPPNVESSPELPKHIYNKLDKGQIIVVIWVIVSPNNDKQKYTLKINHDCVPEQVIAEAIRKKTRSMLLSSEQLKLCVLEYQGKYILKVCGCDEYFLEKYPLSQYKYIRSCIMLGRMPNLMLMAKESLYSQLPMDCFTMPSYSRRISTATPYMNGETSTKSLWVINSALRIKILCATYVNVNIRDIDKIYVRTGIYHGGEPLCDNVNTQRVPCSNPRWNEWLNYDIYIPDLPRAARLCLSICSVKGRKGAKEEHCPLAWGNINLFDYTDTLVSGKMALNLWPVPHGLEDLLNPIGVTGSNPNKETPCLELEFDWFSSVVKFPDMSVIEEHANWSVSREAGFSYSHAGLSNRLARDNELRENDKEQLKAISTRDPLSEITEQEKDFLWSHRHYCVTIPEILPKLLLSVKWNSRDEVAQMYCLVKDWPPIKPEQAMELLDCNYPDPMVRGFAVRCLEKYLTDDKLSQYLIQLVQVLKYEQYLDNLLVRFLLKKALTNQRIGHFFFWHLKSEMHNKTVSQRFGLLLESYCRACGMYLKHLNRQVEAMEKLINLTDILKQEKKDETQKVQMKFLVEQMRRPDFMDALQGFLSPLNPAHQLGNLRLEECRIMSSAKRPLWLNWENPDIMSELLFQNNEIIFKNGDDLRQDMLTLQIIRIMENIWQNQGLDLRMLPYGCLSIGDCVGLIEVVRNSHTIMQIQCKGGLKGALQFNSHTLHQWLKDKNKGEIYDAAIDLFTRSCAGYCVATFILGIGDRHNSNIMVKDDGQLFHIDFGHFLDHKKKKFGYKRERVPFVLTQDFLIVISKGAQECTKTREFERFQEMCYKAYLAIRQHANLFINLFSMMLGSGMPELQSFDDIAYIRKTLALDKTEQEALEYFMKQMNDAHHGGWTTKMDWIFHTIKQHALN
Sequence of PI3Kα (P27986 whole entry partner): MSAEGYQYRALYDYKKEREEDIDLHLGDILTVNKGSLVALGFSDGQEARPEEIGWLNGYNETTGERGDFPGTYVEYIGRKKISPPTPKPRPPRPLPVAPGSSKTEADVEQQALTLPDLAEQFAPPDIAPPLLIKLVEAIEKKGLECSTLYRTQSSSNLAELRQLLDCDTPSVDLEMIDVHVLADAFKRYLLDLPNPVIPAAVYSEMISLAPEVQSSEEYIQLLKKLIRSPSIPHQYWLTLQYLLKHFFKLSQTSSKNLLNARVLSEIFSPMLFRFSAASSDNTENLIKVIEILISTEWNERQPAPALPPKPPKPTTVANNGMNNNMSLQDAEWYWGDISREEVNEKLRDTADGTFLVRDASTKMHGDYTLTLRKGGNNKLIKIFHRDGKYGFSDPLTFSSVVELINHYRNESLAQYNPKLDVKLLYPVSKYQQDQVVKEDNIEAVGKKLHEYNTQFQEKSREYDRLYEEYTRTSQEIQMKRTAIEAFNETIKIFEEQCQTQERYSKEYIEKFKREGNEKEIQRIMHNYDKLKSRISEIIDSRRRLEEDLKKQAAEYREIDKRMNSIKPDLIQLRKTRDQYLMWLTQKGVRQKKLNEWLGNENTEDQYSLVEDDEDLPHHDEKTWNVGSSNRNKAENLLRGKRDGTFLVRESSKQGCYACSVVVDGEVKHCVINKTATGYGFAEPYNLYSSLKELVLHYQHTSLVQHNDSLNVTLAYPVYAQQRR
Sequence of PI3Kβ (P42338 whole entry): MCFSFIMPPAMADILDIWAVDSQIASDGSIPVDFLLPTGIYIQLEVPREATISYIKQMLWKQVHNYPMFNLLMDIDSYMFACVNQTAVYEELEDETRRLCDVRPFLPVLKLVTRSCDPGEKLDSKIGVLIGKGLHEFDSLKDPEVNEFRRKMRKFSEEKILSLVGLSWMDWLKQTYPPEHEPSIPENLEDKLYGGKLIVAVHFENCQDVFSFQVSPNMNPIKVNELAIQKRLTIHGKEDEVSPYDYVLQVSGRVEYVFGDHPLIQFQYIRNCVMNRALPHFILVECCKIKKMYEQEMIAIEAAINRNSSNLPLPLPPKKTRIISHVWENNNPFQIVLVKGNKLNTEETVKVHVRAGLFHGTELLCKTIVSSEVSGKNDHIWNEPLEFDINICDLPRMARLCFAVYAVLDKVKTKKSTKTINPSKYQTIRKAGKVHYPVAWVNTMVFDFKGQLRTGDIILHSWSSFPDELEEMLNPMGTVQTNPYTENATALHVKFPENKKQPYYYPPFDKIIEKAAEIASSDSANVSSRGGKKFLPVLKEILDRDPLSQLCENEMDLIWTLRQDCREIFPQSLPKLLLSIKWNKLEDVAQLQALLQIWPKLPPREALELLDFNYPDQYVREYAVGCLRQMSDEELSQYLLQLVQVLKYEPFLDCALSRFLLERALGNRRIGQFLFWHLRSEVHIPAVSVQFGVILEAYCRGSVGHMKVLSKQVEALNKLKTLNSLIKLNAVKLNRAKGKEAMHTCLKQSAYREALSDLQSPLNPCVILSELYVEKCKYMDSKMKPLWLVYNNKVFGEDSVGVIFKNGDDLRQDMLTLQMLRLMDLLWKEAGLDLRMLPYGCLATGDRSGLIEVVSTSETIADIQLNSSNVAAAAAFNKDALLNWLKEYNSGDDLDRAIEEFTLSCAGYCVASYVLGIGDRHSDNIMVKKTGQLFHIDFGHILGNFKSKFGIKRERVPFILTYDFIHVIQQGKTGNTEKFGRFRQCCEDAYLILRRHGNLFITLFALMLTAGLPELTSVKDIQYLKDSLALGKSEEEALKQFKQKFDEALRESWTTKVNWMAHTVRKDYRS
Sequence of PI3Kβ (P27986 whole entry partner): as the sequence (P27986 whole entry partner) above
Sequence of PI3Kδ (O00329 whole entry): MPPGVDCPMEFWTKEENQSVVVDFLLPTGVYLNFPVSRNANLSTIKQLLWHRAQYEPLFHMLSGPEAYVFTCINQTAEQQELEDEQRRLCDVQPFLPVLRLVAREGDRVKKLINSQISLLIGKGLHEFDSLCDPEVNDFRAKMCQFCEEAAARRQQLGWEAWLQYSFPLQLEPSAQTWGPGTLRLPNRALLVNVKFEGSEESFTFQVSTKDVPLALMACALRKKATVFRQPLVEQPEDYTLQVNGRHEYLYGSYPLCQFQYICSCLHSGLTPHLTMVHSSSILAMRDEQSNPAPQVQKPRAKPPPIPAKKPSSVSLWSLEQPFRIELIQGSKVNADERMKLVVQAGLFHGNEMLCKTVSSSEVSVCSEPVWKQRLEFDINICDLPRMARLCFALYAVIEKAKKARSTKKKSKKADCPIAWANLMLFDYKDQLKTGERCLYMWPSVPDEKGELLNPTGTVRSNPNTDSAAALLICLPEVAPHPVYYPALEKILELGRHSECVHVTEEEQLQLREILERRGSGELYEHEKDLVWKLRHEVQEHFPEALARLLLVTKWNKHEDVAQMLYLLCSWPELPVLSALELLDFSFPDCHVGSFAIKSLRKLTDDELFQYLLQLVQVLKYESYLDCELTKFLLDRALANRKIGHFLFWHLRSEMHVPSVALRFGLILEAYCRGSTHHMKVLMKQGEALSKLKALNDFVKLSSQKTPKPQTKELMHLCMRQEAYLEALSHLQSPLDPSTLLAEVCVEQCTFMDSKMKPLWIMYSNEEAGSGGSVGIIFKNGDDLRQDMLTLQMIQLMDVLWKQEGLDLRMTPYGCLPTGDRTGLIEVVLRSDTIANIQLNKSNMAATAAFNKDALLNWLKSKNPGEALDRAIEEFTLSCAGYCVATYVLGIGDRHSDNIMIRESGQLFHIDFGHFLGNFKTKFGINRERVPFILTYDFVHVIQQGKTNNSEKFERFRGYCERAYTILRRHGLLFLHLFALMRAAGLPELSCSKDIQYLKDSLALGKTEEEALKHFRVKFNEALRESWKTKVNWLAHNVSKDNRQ
Sequence of PI3Kδ (P27986 whole entry partner): as the sequence (P27986 whole entry partner) above

For `CC(C)(O)C1CCN(Cc2csc3c(-c4cccc5[nH]ccc45)nc(N4CCOCC4)nc23)CC1` [Compound 4], the γ/δ selectivity on PI3Kγ is on record as more than 282. For the same compound, at PI3Kα, the α/δ selectivity is more than 282. Further, at PI3Kδ, inhibition was half-maximal at 35.4 nM (IC50). Also, on PI3Kβ, the β/δ selectivity is reported as more than 282.
As for `Cc1sc2c(-c3cccc4[nH]ccc34)nc(N3CCOCC3)nc2c1CN1CCN(C(=O)CO)CC1` [Compound 8], on PI3Kγ, the γ/δ selectivity is listed as 57. The α/δ selectivity on PI3Kα is 90. On PI3Kδ, this compound displayed an IC50 of 72 nM. Further, the β/δ selectivity on PI3Kβ was determined as 27.
Regarding `COc1ncc(-c2nc(N3CCOCC3)nc3c(CN4CCN(C)CC4)c(C)sc23)cc1NS(C)(=O)=O` [Compound 65], on PI3Kγ, the γ/δ selectivity is more than 571. Further, the figures for the IC50 in the experiment with Raji cells and on PI3Kδ were 15.4 nM and 17.5 nM, respectively. The α/δ selectivity at PI3Kα is listed as 174. The β/δ selectivity at PI3Kβ is on record as 94.
The like results for `COc1ncc(-c2nc(N3CCOCC3)nc3c(CN4CCC(C(C)(C)OC)CC4)c(C)sc23)cc1NS(C)(=O)=O` [Compound 78] were, in that order, more than 1298, 10.6 nM, 7.7 nM, 302 and 18.
Regarding `COc1ncc(-c2nc(N3CCOCC3)nc3c(CN4CCC(OC)CC4)c(C)sc23)cc1NS(C)(=O)=O` [Compound 83], the γ/δ selectivity on PI3Kγ is more than 840. In addition, the IC50 came out at 6.7 nM in the experiment with Raji cells and 11.9 nM at PI3Kδ. The α/δ selectivity at PI3Kα stood at 257. For the same compound, on PI3Kβ, the β/δ selectivity turned out to be 24.
Taken in the same sequence, the figures for `COc1ncc(-c2nc(N3CCOCC3)nc3c(CN4CCC(C(C)(C)F)CC4)c(C)sc23)cc1NS(C)(=O)=O` [Compound 85] were more than 1162, 39.1 nM, 8.6 nM, 401 and 69.
In the case of `COc1ncc(-c2nc(N3CCOCC3)nc3c(CN4CCCCC4)c(C)sc23)cc1NS(C)(=O)=O` [Compound 86], the γ/δ selectivity on PI3Kγ was 402. At PI3Kα, the α/δ selectivity stood at 136. Further, the IC50 against PI3Kδ worked out at 12 nM. The β/δ selectivity at PI3Kβ was 25.
Regarding `COc1ncc(-c2nc(N3CCOCC3)nc3c(CN4CCN(CC(F)(F)F)CC4)c(C)sc23)cc1NS(C)(=O)=O` [Compound 87], the γ/δ selectivity at PI3Kγ turned out to be 498. Besides, the IC50 in the experiment with Raji cells came out at 41.6 nM; on PI3Kδ, 12.5 nM. Moreover, the α/δ selectivity on PI3Kα was 204. On PI3Kβ, the β/δ selectivity was determined as 45.
Taken in the same sequence, the figures for `COc1ncc(-c2nc(N3CCOCC3)nc3c(CN4CCC(C(C)C)CC4)c(C)sc23)cc1NS(C)(=O)=O` [Compound 88] were 1202, 6.1 nM, 5.8 nM, 548 and 73.
For `COc1ncc(-c2nc(N3CCOCC3)nc3c(CN4CCC(N(C)C(C)C)CC4)c(C)sc23)cc1NS(C)(=O)=O` [Compound 95], the γ/δ selectivity on PI3Kγ is given as 532. Further, the IC50 in the experiment on Raji cells was 1.1 nM; at PI3Kδ it was 6.5 nM. In addition, at PI3Kα, the α/δ selectivity is recorded as 157. Also, the β/δ selectivity on PI3Kβ was determined as 167.
As for `COc1ncc(-c2nc(N3CCOCC3)nc3c(CN4CCC(C)(C)CC4)c(C)sc23)cc1NS(C)(=O)=O` [Compound 99], the γ/δ selectivity on PI3Kγ is on record as 244. The α/δ selectivity at PI3Kα amounted to 152. The same compound gave an IC50 on PI3Kδ of 34 nM. Also, the β/δ selectivity at PI3Kβ was found to be 24.
Regarding `COc1ncc(-c2nc(N3CCOCC3)nc3c(CN4CCC(C)CC4)c(C)sc23)cc1NS(C)(=O)=O` [Compound 101], the γ/δ selectivity on PI3Kγ came to 482. The half-maximal inhibitory concentration (IC50) came out at 32.6 nM in the experiment with Raji cells and 12 nM against PI3Kδ. Moreover, the α/δ selectivity on PI3Kα is 390. The β/δ selectivity at PI3Kβ was 29.
For the compound `COc1ncc(-c2nc(N3CCOCC3)nc3c(CN4CCCC4)c(C)sc23)cc1NS(C)(=O)=O` [Compound 102], the γ/δ selectivity at PI3Kγ is reported as 200. The α/δ selectivity at PI3Kα was 146. The compound also returned an IC50 against PI3Kδ of 9.3 nM. The β/δ selectivity on PI3Kβ is on record as 16.
Regarding `COc1ncc(-c2nc(N3CCOCC3)nc3c(CN4CCC5(CC4)OCCO5)c(C)sc23)cc1NS(C)(=O)=O` [Compound 104], at PI3Kγ, the γ/δ selectivity is recorded as 377. The α/δ selectivity at PI3Kα was found to be 159. In addition, the IC50 against PI3Kδ came out at 4.3 nM. At PI3Kβ, the β/δ selectivity came to 19.
The like results for `COc1ncc(-c2nc(N3CCOCC3)nc3c(CN4CCC5(CC4)CNC5)c(C)sc23)cc1NS(C)(=O)=O` [Compound 106] were, in that order, more than 392, 129, 25.5 nM and 72.
As to `COc1ncc(-c2nc(N3CCOCC3)nc3c(CN4CCC(O)CC4)c(C)sc23)cc1NS(C)(=O)=O` [Compound 108], at PI3Kγ, the γ/δ selectivity was found to be 262. At PI3Kα, the α/δ selectivity worked out at 78. This compound displayed an IC50 against PI3Kδ of 13 nM. Moreover, the β/δ selectivity on PI3Kβ came to 6.
`COc1ncc(-c2nc(N3CCOCC3)nc3c(CN4CCN(C(C)(C)C)CC4)c(C)sc23)cc1NS(=O)(=O)C1CC1` [Compound 109]: the γ/δ selectivity on PI3Kγ is listed as 1296. For the same compound, at PI3Kα, the α/δ selectivity is 251. This compound also returned an IC50 on PI3Kδ of 3.9 nM. Further, on PI3Kβ, the β/δ selectivity is 723.
For the compound `CCN(CC)C1CCN(Cc2c(C)sc3c(-c4cnc(OC)c(NS(C)(=O)=O)c4)nc(N4CCOCC4)nc23)CC1` [Compound 110], the γ/δ selectivity at PI3Kγ came out at 1112. For the same compound, the IC50 was 3.3 nM in the experiment with Raji cells and 4.1 nM at PI3Kδ. On PI3Kα, the α/δ selectivity came to 203. Besides, the β/δ selectivity on PI3Kβ is 275.
Taken in the same sequence, the figures for `COc1ncc(-c2nc(N3CCOCC3)nc3c(CN4CCC(N5CCCC5)CC4)c(C)sc23)cc1NS(C)(=O)=O` [Compound 112] were 611, 1.1 nM, 7.6 nM, 108 and 126.
`COc1ncc(-c2nc(N3CCOCC3)nc3c(CN4CC(N(C)C)C4)c(C)sc23)cc1NS(C)(=O)=O` [Compound 121]: the IC50 with Raji cells came to 33.7 nM; at PI3Kδ, 16 nM. Moreover, the α/δ selectivity at PI3Kα worked out at 192.
On to `COc1ncc(-c2nc(N3CCOCC3)nc3c(CN4CCC(N5CCC[C@H]5CO)CC4)c(C)sc23)cc1NS(C)(=O)=O` [Compound 126], for which the IC50 worked out at 3.9 nM in the experiment on Raji cells and 4.7 nM on PI3Kδ. For the same compound, at PI3Kα, the α/δ selectivity turned out to be 170.
In the case of `COc1ncc(-c2nc(N3CCOCC3)nc3c(CN4CCC(N5CCC[C@@H]5C)CC4)c(C)sc23)cc1NS(C)(=O)=O` [Compound 127], the results for the IC50 with Raji cells and against PI3Kδ were 1.5 nM and 5.8 nM, respectively. Besides, the α/δ selectivity on PI3Kα amounted to 38.
`COc1ncc(-c2nc(N3CCOCC3)nc3c(CN4CCC(N5CCCCC5)CC4)c(C)sc23)cc1NS(C)(=O)=O` [Compound 147]: the γ/δ selectivity on PI3Kγ stood at 567. Further, the results for the IC50 in the experiment on Raji cells and on PI3Kδ were 3.3 nM and 4.6 nM, respectively. The α/δ selectivity at PI3Kα is reported as 225. The β/δ selectivity at PI3Kβ worked out at 140.
Taken in the same sequence, the figures for `COc1ncc(-c2nc(N3CCOCC3)nc3c(CN4CCC(N5CCC5)CC4)c(C)sc23)cc1NS(C)(=O)=O` [Compound 148] were 587, 7 nM, 4.7 nM, 280 and 110.
For the compound `COc1ncc(-c2nc(N3CCOCC3)nc3c(CN4CCC(N5CCCCC5=O)CC4)c(C)sc23)cc1NS(C)(=O)=O` [Compound 150], the γ/δ selectivity on PI3Kγ is 221. Besides, the IC50 came to 8.6 nM with Raji cells and 9.3 nM against PI3Kδ. Moreover, the α/δ selectivity at PI3Kα is recorded as 39. Moreover, the β/δ selectivity at PI3Kβ turned out to be 15.
